# Data taken from patent US20190099404A1, “ANALGESIC COMPOUNDS” (ZENO ROYALTIES & MILESTONES, LLC, priority 2016, published 2019).
# System: male ICR mice
# Experiment: Formalin Paw Test
# Type: in vivo
# Details: early/acute phase (0-10 minutes) after 2% formalin in hind paw; 30 mg/kg, intraperitoneal, given 10 minutes before formalin
# Method: One test compound or the vehicle was administered to each mouse in each test group (8 mice per group). Non-fasted male ICR mice weighing 23±3 g were used. Test compounds were administered at a concentration of 30 mg/kg; morphine was administered at a concentration of 10 mg/kg; and acetaminophen was administered at a concentration of >100 mg/kg. The control group received the vehicle (5% DMSO/15% PEG400/10% HPbCD/0.9% Saline). After 10 minutes, a 2% formalin solution (0.02 mL) was injected into one hind paw (sub-plantar) of each mouse. Responses were measured every 5 minutes after the formalin injection for 35 minutes.
# The results in Table A are for intraperitoneal administration. In Table A, ‘A’ designates <70 licks/sec, ‘B’ designates ≥70 licks/sec and <165 licks/sec, and ‘C’ designates ≥165 licks/sec.
row,Compound,Early Phase
1,Nc1ccc2[nH]cnc2c1 [Compound 1],B (‘B’ designates ≥70 licks/sec and <165 licks/sec)
2,Cn1ncc2cc(N)ccc21 [Compound 2],A (‘A’ designates <70 licks/sec)
3,NCc1cc2ccccn2n1 [Compound 3],A (‘A’ designates <70 licks/sec)
4,NCc1cc2cc(F)ccc2[nH]1 [Compound 4],A (‘A’ designates <70 licks/sec)
5,NCc1nc2cc(C(F)(F)F)ccc2s1 [Compound 5],A (‘A’ designates <70 licks/sec)
6,Nc1nc2ccc(C(F)(F)F)cc2s1 [Compound 6],A (‘A’ designates <70 licks/sec)
7,NCCc1nc2ccc(F)cc2[nH]1 [Compound 7],B (‘B’ designates ≥70 licks/sec and <165 licks/sec)
8,NCc1nc2cc(F)ccc2[nH]1 [Compound 9],A (‘A’ designates <70 licks/sec)
9,CC(C)(C)c1ccc2nc(N)sc2c1 [Compound 10],A (‘A’ designates <70 licks/sec)
10,NCc1ccc2cncn2c1 [Compound 11],B (‘B’ designates ≥70 licks/sec and <165 licks/sec)

# Same assay, conditions: late/tonic phase (10-35 minutes) after 2% formalin in hind paw; 30 mg/kg, intraperitoneal, given 10 minutes before formalin
row,Compound,Late Phase
1,Nc1ccc2[nH]cnc2c1 [Compound 1],C (‘C’ designates ≥165 licks/sec)
2,Cn1ncc2cc(N)ccc21 [Compound 2],B (‘B’ designates ≥70 licks/sec and <165 licks/sec)
3,NCc1cc2ccccn2n1 [Compound 3],C (‘C’ designates ≥165 licks/sec)
4,NCc1cc2cc(F)ccc2[nH]1 [Compound 4],A (‘A’ designates <70 licks/sec)
5,NCc1nc2cc(C(F)(F)F)ccc2s1 [Compound 5],A (‘A’ designates <70 licks/sec)
6,Nc1nc2ccc(C(F)(F)F)cc2s1 [Compound 6],A (‘A’ designates <70 licks/sec)
7,NCCc1nc2ccc(F)cc2[nH]1 [Compound 7],A (‘A’ designates <70 licks/sec)
8,NCc1nc2cc(F)ccc2[nH]1 [Compound 9],A (‘A’ designates <70 licks/sec)
9,CC(C)(C)c1ccc2nc(N)sc2c1 [Compound 10],A (‘A’ designates <70 licks/sec)
10,NCc1ccc2cncn2c1 [Compound 11],C (‘C’ designates ≥165 licks/sec)
